≈ marks a conversion by molar mass, not a printed value. Where a SMILES comes first, the peptide text is derived from it.
System: P388
Assay: Inhibitory activity against P388 lymphocytic leukemia cells
Format: functional
Settings: Mus musculus, read-out: ED50 (the source's name)

EC50: 2.8 µg/mL (≈ 2.46 µM)
SMILES: CC[C@H](C)[C@@H]1NC(=O)[C@@H]2CCCN2C(=O)[C@@H]2CCCN2C(=O)[C@H]([C@@H](C)CC)NC(=O)[C@H](Cc2ccc(O)cc2)NC(=O)[C@@H]2CCCN2C(=O)[C@@H]2CCCN2C(=O)[C@H](CC(C)C)NC(=O)[C@H]([C@@H](C)O)NC(=O)[C@H](Cc2ccccc2)NC1=O [PHAKELLISTATIN 12] (cyclo(FTLPPYIPPI))

From ChEMBL document CHEMBL1136589, “Antineoplastic agents 390. Isolation and structure of phakellistatin 12 from a Chuuk archipelago marine sponge” (2003)
